The record followed here is patent US11014915B2, “Selective estrogen receptor degrader” (SUN PHARMA ADVANCED RESEARCH COMPANY LIMITED, priority 2019, dated 2021).

In experiment [1] the target is T1, ER-α in MCF-7 cells harboring ER wild type (Homo sapiens, UniProt P03372).
T1 construct: evaluated in MCF-7 cells harboring ER wild type; endogenous in cells; host or cells: MCF-7
T1 sequence (P03372 1-595): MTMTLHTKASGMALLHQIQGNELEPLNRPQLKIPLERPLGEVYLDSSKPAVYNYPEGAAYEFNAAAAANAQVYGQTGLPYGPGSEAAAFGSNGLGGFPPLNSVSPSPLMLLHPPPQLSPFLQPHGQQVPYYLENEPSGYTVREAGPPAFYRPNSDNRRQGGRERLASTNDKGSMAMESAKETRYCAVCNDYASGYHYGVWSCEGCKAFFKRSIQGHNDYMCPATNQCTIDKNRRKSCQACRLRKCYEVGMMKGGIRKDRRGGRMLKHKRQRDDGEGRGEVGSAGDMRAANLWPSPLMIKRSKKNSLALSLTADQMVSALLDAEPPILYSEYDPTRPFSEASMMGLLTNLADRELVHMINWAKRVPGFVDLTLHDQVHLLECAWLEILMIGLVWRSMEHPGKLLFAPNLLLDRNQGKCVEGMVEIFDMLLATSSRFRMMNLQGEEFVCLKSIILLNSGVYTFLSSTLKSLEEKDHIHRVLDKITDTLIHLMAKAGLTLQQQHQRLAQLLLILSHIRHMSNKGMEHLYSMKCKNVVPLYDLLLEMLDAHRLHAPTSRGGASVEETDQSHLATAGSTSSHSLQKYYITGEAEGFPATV
The experiment is described as follows: ER-α degradation (SERD) assay, MCF-7 wild type. The class given is cell-based. Conditions: for % of ER-α remaining at 1 nM / DC50: MCF-7 Wt, 4 days; for % of ER-α remaining at 1 nM: western blot, vehicle control as 100%; for DC50: read-out: ER-α degradation assay Wt IC50. On the procedure:
(§1) Selective Estrogen Receptor Degradation (SERD) Assay:
(§2) The SERD activity for the test compounds was evaluated in MCF-7 cells harboring ER wild type, and MCF-7 cells harboring mutant ER (WT/D538G and WT/Y537S). Briefly, cells were plated in phenol red free RPMI1640 medium supplemented with 5% charcoal stripped fetal bovine serum. The seeding density was 40000 cells/well for MCF-7 WT and MCF-7 D538G and 50000 cells/well MCF-7 Y537S in a 48-well plate. Following overnight incubation, the cells were treated with varying concentrations of test compounds (final concentration: 1000 nM to 0.01 nM, 0.1% DMSO) for 4 days. The cells were lysed using PBS supplemented with 1 mM EDTA, 0.5% Triton X-100, 5 mM NaF, 6 M urea, and 1× Protease inhibitor cocktail. The lysate was analyzed for ER alpha protein using western blot. For the western blot, the cell lysate (12.5-40 μg total protein) was resolved on a 10% SDS PAGE and transferred onto a PVDF membrane. The blots were blocked using 5% skim milk powder in 0.1% PBS-T for 1 hour at room temperature, followed by co-incubation with rabbit anti-human β-actin antibody and rabbit anti-human ERα antibody for 2 hours at room temperature. The blots were subsequently probed with anti-rabbit IgG-HRP conjugate as secondary antibody for 1 hour at room temperature. The blots were developed by using West Pico Super Signal Chemiluminescence substrate and the bands were processed for densitometry analysis using Image Lab software (BioRad version 6.0.0). ERα band intensity was normalized to that housekeeping protein for respective samples. The % ER remaining was calculated by normalizing against the vehicle control (as 100%).
On the technique in general: In western blotting, separated proteins are transferred to a membrane and probed.

Experiment [2] deals with T2, ER-α in MCF-7 cells harboring mutant ER (WT/D538G) (Homo sapiens, UniProt P03372, D538G).
T2 construct: MCF-7 cells harboring mutant ER (WT/D538G and WT/Y537S); endogenous in cells; host or cells: MCF-7 D538G (WT/D538G)
T2 sequence (P03372 1-595 D538G): T1 sequence (P03372 1-595) with D538G
As to the kind of experiment: ER-α degradation (SERD) assay, MCF-7 D538G. It counts as cell-based. The following applies: for DC50: MCF-7 D538G, 4 days, read-out: ER-α degradation assay D538G IC50. On the procedure: as §1, §2

For experiment [3], the system named is MCF-7 cells harboring ER wild type (Wt). The experiment is described as follows: MCF-7 cell growth inhibition assay, wild type. It counts as cell-based, human. The following applies: for IC50: Homo sapiens, MCF7, 168 h, MCF-7 Wt, seven-day incubation. The procedure: (§3) MCF-7 Cell Growth Inhibition Assay:
(§4) The anti-proliferative activity of the test compounds were evaluated in a growth inhibition assay. Briefly, MCF-7 cells harboring ER wild type (Wt), and MCF-7 cells harboring mutant ER (WT/D538G and WT/Y537S) were seeded at a density of 1000 cells/well in 96-well plate in phenol red free RPMI1640 medium supplemented with 10% charcoal stripped fetal bovine serum. The cells were incubated overnight at 37° C. and 5% CO2 followed by the addition of varying concentrations of the test compounds in DMSO. Final concentration of DMSO in the well was 0.5%. Following a seven-day incubation of cells with the test compounds, cell viability was assessed using a Prestoblue™ reagent. The percent inhibition of cell proliferation was calculated by normalizing the cell viability using a vehicle control as 0% inhibition of proliferation.

In experiment [4] the test system is MCF-7 cells harboring mutant ER (WT/Y537S). As to the kind of experiment: MCF-7 cell growth inhibition assay, Y537S. The class given is cell-based. The following applies: Homo sapiens, MCF7, 168 h; MCF-7 Y537S, seven-day incubation. On the procedure: as §3, §4
The test system of experiment [5] is MCF-7 cells harboring mutant ER (WT/D538G). As to the kind of experiment: MCF-7 cell growth inhibition assay, D538G. It counts as cell-based. The following applies: Homo sapiens, MCF7, 168 h; MCF-7 D538G, seven-day incubation. The procedure: as §3, §4

SMILES strings stand for the structures. Residue numbers refer to the chain shown, from its start.

Regarding `CC1=C(c2cc(F)cc(F)c2)[C@H](c2ccc(/C=C/CN3CC(CF)C3)cc2)Oc2cc(O)ccc21` [Formula Ia, (2S)-3-(3,5-difluorophenyl)-2-[4-[(E)-3-[3-(fluoromethyl)azetidin-1-yl]prop-1-enyl]phenyl]-4-methyl-2H-chromen-7-ol], the “% of ER-α remaining at 1 nM” value in experiment [1] came out at 16.3%. The DC50 worked out at 0.3 nM in experiment [1] and 12.7 nM in experiment [2]. In experiment [1] (wild type), the “Potency of Formula Ia relative to Formula Ib in ER-α degradation” value was “about 34 times”. Also, the IC50 in experiment [3] was 0.3 nM; in experiment [4] it was 6 nM; in experiment [5], 2.2 nM. The “Potency of Formula Ia relative to Formula Ib in MCF-7 growth inhibition assay” value in experiment [3] (wild type) is “about 233 times”.

As to `CC1=C(c2cc(F)cc(F)c2)[C@@H](c2ccc(/C=C/CN3CC(CF)C3)cc2)Oc2cc(O)ccc21` [Formula Ib, (2R)-3-(3,5-difluorophenyl)-2-[4-[(E)-3-[3-(fluoromethyl)azetidin-1-yl]prop-1-enyl]phenyl]-4-methyl-2H-chromen-7-ol], in experiment [1], the “% of ER-α remaining at 1 nM” value is given as 81.5%. In addition, the figures for the DC50 in experiment [1] and in experiment [2] were 10.2 nM and above 1000 nM, respectively. Moreover, in experiment [2] (D538G), the “ER-α degradation in mutated cell line (in words)” value is given as “no ER-α degradation”. For the same molecule, the IC50 was found to be 69.9 nM in experiment [3], 1000 nM in experiment [4] and 345 nM in experiment [5].

As usually defined, the IC50 is the midpoint of a concentration-inhibition curve. A high value points to weaker potency.
